Reference: US7781580B2, “Stilbene derivatives as new cancer therapeutic agents” (Virginia Commonwealth University, priority 2007, dated 2010)

How the values were obtained:
[1] = test system: tubulin (colchicine site); experiment: [3H]-colchicine competition for binding tubulin; conditions: 20 min, 37° C.
Experimental: FIG. 3a-d. […] (a) Effect of stilbene 4a. Pure tubulin was incubated with various concentrations of stilbene 4a, 10 μM nocodazole, and 10 μM paclitaxel in the polymerization buffer. The OD at 340 nm was monitored every minute by SpectraMAX 250 and plotted against time. (b) Effect of stilbene 4c. (c) Comparison of same concentrations of stilbenes 4a, 4a trans, 4c and 4c trans with control. […] The radioactivity of the tubulin was counted. […] All experiments were done in triplicates.
Tubulin retained in the Microcon was washed three times with PBS. The radioactivity of the final concentrated tubulin was determined by a scintillation counter.

[2] = test system: human umbilical vein endothelial cells (HUVECs); experiment: HUVEC flow cytometry and tubulin staining; format: cell-based; conditions: 30 nM, 16 hours
Experimental: (a) Flow cytometry analysis. HUVECs were treated with 30 nM of stilbene 4a for 16 hours followed by staining with PI and subjected to flow cytometry analysis. A large subG0/1 population, representing apoptotic cells, appeared along with reverse of the G1/G2 ratio. (b) Immunofluorescent staining of the HUVECs with antibody against tubulin. Nuclei were counter-stained with DAPI. Stilbene 4a disrupted microtubules at a concentration of 30 nM or higher. Stilbene 4c disrupted microtubules at 100 nM.
In order to establish that stilbenes suppress tumor perfusion by damaging tumor endothelial cells, we first incubated human vascular endothelial cells (HUVECs) with various concentrations of stilbenes in vitro. After 24 hours of incubation, cells were processed for flow cytometry analysis with propidium iodide staining. Cells were also fixed with 2% paraformaldehyde and stained with anti-tubulin antibody to examine tubulin disruption and with DAPI to analyze nuclear fragmentation.

[3] = test system: c-kit-positive progenitor cells (engraftment); experiment: bone marrow transplantation of stilbene-treated progenitor cells; format: in vivo, mice; conditions: cells incubated at 0.1 or 0.5 μM for 16 hours
Experimental: FIG. 16. (a) Effect of stilbenes in normal bone marrow progenitor cells. c-kit-positive bone marrow mononuclear cells were isolated for incubation with stilbenes 4a or 4c at 0.1 or 0.5 […] for 16 hours. Cells were harvested for fixation and PI staining. Cell cycle analysis and quantification of the subG0/1 population were analyzed by FACScan flow cytometry. The percentages of the apoptotic population were indicated. Shown are the representatives of two independent experiments. (b) Effect of stilbenes in HL60 cells as positive control. HL60 cells were treated with stilbenes 4a or 4c in the same medium as the positive control. (c) Colony forming assay of the stilbene-treated c-kit-positive cells. […] Cells were incubated for 14 days and the grossly visible colonies were counted. […] Mice were monitored for survival and lineage-specific donor engraftment by flow cytometry analysis of peripheral blood. […]
C57BL/6J (H2b, CD45.2) mice served as bone marrow donors and were between 6-10 weeks of age. […] Peripheral blood engraftment in recipient mice was assessed by flow cytometry analysis for CD3+ (145-2C11; BD Biosciences, San Jose, Calif.) T-cells, B220+ (RA3-6B2) B-cells, Mac1+ (M1/70.15) monocytes, and Gr1+ (8C5) granulocytes and distinguished between donor versus recipient with anti-CD45.1 (A20) and anti-CD45.2 (104) monoclonal antibodies.

[4] = test system: UCI101 ovarian cancer cells; experiment: Western blot of signal transduction events, UCI101; format: cell-based
In short: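 UCI101 cells exposed to 0.1 μM compound for 0, 4, 8, 16 and 36 h, then harvested and analysed by Western blot. Probes covered G2-M regulators Cdc2, Cdc25c and BubR1, plus Akt phosphorylation.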

[5] = acute toxicity in dose escalating study; format: in vivo, mice; conditions: 100 mg/kg intraperitoneally
Experimental: Acute toxicity in dose escalating study: We investigated the efficacy of stilbene 4a in vivo using mouse xenograft model. First we determined the maximal tolerated dose of stilbene 4a since it has a higher potency in vitro. […] Subsequently mice fully recovered 30 min after injection.

COc1cc(/C=C\c2ccc(OC)c(N)c2)cc(OC)c1 [4a, (Z)-5-[2-(3,5-Dimethoxy-phenyl)-vinyl]-2-methoxy-phenylamine]
competition with [3H]-colchicine for tubulin [1]: dose-dependent suppression of tubulin-colchicine interaction | apoptosis of HUVECs (flow cytometry) [2]: induced a significant apoptotic population of subG0/1 cells | radioprotection of lethally irradiated mice by treated progenitor cells [3]: all mice were rescued from lethal irradiation | phosphorylation of Stat3 ([4]; 0.1 μM): transient increase in phosphorylation at 4 and 8 hours | phosphorylation of Cdc2 at Tyr15 ([4]; 0.1 μM, 16 hours): decreased dramatically | phosphorylation of Chk1 ([4]; 36 hours): increased uniquely at 36 hours | acute toxicity at 100 mg/kg intraperitoneally [5]: no sign of weakness was observed
